Data: ChEMBL document CHEMBL3885861, “Open TG-GATES”

Species: Rattus norvegicus
Assay: Open TG-GATES - Regimen: Daily Repeat
Format: toxicity, organism-based, Sprague-Dawley
Design: regimen Daily Repeat, gender Male, age 6 weeks
Settings: in vivo, po, 10 mg/kg, route gavage, dose level Low; for APTT / Bas / Eos / Fbg / Hb / Ht / Lym / MCH / MCHC / MCV / Mono / Neu / PT / Plat / RBC / Ret / WBC: tissue Blood; for KIDNEY_L / KIDNEY_R / KIDNEY_TOTAL: tissue Kidney; for LIVER: tissue Liver; for A/G / ALP / ALT / AST / BUN / CRE / Ca / Cl / DBIL / GLC / IP / K / LDH / Na / PL / RALB / TBIL / TC / TG / TP / gamma-GTP: tissue Plasma

Compound `CCCc1cc(=O)[nH]c(=S)[nH]1` [PROPYLTHIOURACIL] has a TERMINAL_BW (72 h, time 3 day) of 207 g, an APTT (72 h, time 3 day) of 15.4 s and a Bas (72 h, time 3 day) of 0%. The Eos (72 h, time 3 day) was 0%, the Fbg (72 h, time 3 day) was 238.6 mg/dL and the Hb (72 h, time 3 day) was 13.5 g/dL. It also gave a Ht (72 h, time 3 day) of 40.4%, a Lym (72 h, time 3 day) of 75.2% and an MCH (72 h, time 3 day) of 21.4 pg. It also gave an MCHC (72 h, time 3 day) of 33.3%, an MCV (72 h, time 3 day) of 64.3 fL and a Mono (72 h, time 3 day) of 7.4%. For the same compound, the Neu (72 h, time 3 day) was 17.4%, the PT (72 h, time 3 day) was 12.4 s and the Plat (72 h, time 3 day) was 93.7 x10_4/uL. For the same compound, the RBC (72 h, time 3 day) was 629.4 x10_4/ul, the Ret (72 h, time 3 day) was 6.6% and the WBC (72 h, time 3 day) was 124.3 x10_2/uL. For the same compound, the KIDNEY_L (72 h, time 3 day) was 0.9 g, the KIDNEY_R (72 h, time 3 day) was 0.9 g and the KIDNEY_TOTAL (72 h, time 3 day) was 1.8 g. The LIVER (72 h, time 3 day) was 10 g, the A/G (72 h, time 3 day) was 2 and the ALP (72 h, time 3 day) was 1039.8 IU/L. The ALT (72 h, time 3 day) was 30.4 IU/L, the AST (72 h, time 3 day) was 54.4 IU/L and the BUN (72 h, time 3 day) was 20 mg/dL. For the same compound, the CRE (72 h, time 3 day) was 0.5 mg/dL, the Ca (72 h, time 3 day) was 11.2 mg/dL and the Cl (72 h, time 3 day) was 105.8 meq/L. The DBIL (72 h, time 3 day) was 0 mg/dL, the GLC (72 h, time 3 day) was 185.4 mg/dL and the IP (72 h, time 3 day) was 7.1 mg/dL. For the same compound, the K (72 h, time 3 day) was 4.7 meq/L, the LDH (72 h, time 3 day) was 81.2 IU/L and the Na (72 h, time 3 day) was 138 meq/L. The PL (72 h, time 3 day) was 161.4 mg/dL, the RALB (72 h, time 3 day) was 3.9 g/dL and the TBIL (72 h, time 3 day) was 0.3 mg/dL. For the same compound, the TC (72 h, time 3 day) was 97.6 mg/dL, the TG (72 h, time 3 day) was 87.4 mg/dL and the TP (72 h, time 3 day) was 5.9 g/dL. For the same compound, the gamma-GTP (72 h, time 3 day) was 2 IU/L, the TERMINAL_BW ([…], time 7 day) was 233.5 g and the TERMINAL_BW ([…], time 14 day) was 245.3 g. For the same compound, the TERMINAL_BW ([…], time 28 day) was 243.1 g, the APTT ([…], time 7 day) was 15.3 s and the Bas ([…], time 7 day) was 0%. It also gave an Eos ([…], time 7 day) of 0.2%, a Fbg ([…], time 7 day) of 252.2 mg/dL and a Hb ([…], time 7 day) of 13.9 g/dL. It also gave a Ht ([…], time 7 day) of 41.5%, a Lym ([…], time 7 day) of 86.6% and an MCH ([…], time 7 day) of 21 pg. The MCHC ([…], time 7 day) was 33.4%, the MCV ([…], time 7 day) was 62.8 fL and the Mono ([…], time 7 day) was 6.6%. For the same compound, the Neu ([…], time 7 day) was 6.6%, the PT ([…], time 7 day) was 12.6 s and the Plat ([…], time 7 day) was 117.2 x10_4/uL. It also gave an RBC ([…], time 7 day) of 662.4 x10_4/ul, a Ret ([…], time 7 day) of 4% and a WBC ([…], time 7 day) of 116 x10_2/uL. The APTT ([…], time 14 day) was 16.4 s, the Bas ([…], time 14 day) was 0% and the Eos ([…], time 14 day) was 0.4%. For the same compound, the Fbg ([…], time 14 day) was 194.6 mg/dL, the Hb ([…], time 14 day) was 14.7 g/dL and the Ht ([…], time 14 day) was 43.7%. It also gave a Lym ([…], time 14 day) of 90.6%, an MCH ([…], time 14 day) of 20.6 pg and an MCHC ([…], time 14 day) of 33.7%. The MCV ([…], time 14 day) was 61.1 fL, the Mono ([…], time 14 day) was 3.8% and the Neu ([…], time 14 day) was 5.2%. The PT ([…], time 14 day) was 14 s, the Plat ([…], time 14 day) was 101.1 x10_4/uL and the RBC ([…], time 14 day) was 715.2 x10_4/ul. For the same compound, the Ret ([…], time 14 day) was 1.3%, the WBC ([…], time 14 day) was 120.9 x10_2/uL and the APTT ([…], time 28 day) was 15.2 s. The Bas ([…], time 28 day) was 0%, the Eos ([…], time 28 day) was 1.6% and the Fbg ([…], time 28 day) was 176.8 mg/dL. The Hb ([…], time 28 day) was 16.3 g/dL, the Ht ([…], time 28 day) was 48.4% and the Lym ([…], time 28 day) was 85.4%. For the same compound, the MCH ([…], time 28 day) was 19.3 pg, the MCHC ([…], time 28 day) was 33.7% and the MCV ([…], time 28 day) was 57.5 fL. It also gave a Mono ([…], time 28 day) of 4.8%, a Neu ([…], time 28 day) of 8.2% and a PT ([…], time 28 day) of 14.8 s. For the same compound, the Plat ([…], time 28 day) was 83 x10_4/uL, the RBC ([…], time 28 day) was 843.2 x10_4/ul and the Ret ([…], time 28 day) was 0.7%. For the same compound, the WBC ([…], time 28 day) was 61.3 x10_2/uL, the KIDNEY_L ([…], time 7 day) was 1 g and the KIDNEY_R ([…], time 7 day) was 1 g. The KIDNEY_TOTAL ([…], time 7 day) was 1.9 g, the KIDNEY_L ([…], time 14 day) was 0.9 g and the KIDNEY_R ([…], time 14 day) was 0.9 g. It also gave a KIDNEY_TOTAL ([…], time 14 day) of 1.7 g, a KIDNEY_L ([…], time 28 day) of 0.8 g and a KIDNEY_R ([…], time 28 day) of 0.8 g. The KIDNEY_TOTAL ([…], time 28 day) was 1.7 g, the LIVER ([…], time 7 day) was 12.4 g and the LIVER ([…], time 14 day) was 10.5 g. For the same compound, the LIVER ([…], time 28 day) was 7.9 g, the A/G ([…], time 7 day) was 1.8 and the ALP ([…], time 7 day) was 740.8 IU/L. For the same compound, the ALT ([…], time 7 day) was 27.6 IU/L, the AST ([…], time 7 day) was 48.8 IU/L and the BUN ([…], time 7 day) was 20.4 mg/dL. It also gave a CRE ([…], time 7 day) of 0.5 mg/dL, a Ca ([…], time 7 day) of 11.5 mg/dL and a Cl ([…], time 7 day) of 105.6 meq/L. For the same compound, the DBIL ([…], time 7 day) was 0.008 mg/dL, the GLC ([…], time 7 day) was 169.4 mg/dL and the IP ([…], time 7 day) was 7.2 mg/dL. It also gave a K ([…], time 7 day) of 4.9 meq/L, an LDH ([…], time 7 day) of 83.8 IU/L and a Na ([…], time 7 day) of 139.6 meq/L. It also gave a PL ([…], time 7 day) of 174.2 mg/dL, an RALB ([…], time 7 day) of 4.1 g/dL and a TBIL ([…], time 7 day) of 0.3 mg/dL. For the same compound, the TC ([…], time 7 day) was 108 mg/dL, the TG ([…], time 7 day) was 116.6 mg/dL and the TP ([…], time 7 day) was 6.4 g/dL. The gamma-GTP ([…], time 7 day) was 1.4 IU/L, the A/G ([…], time 14 day) was 1.7 and the ALP ([…], time 14 day) was 568 IU/L. The ALT ([…], time 14 day) was 27 IU/L, the AST ([…], time 14 day) was 52.8 IU/L and the BUN ([…], time 14 day) was 26.6 mg/dL. For the same compound, the CRE ([…], time 14 day) was 0.7 mg/dL, the Ca ([…], time 14 day) was 11.1 mg/dL and the Cl ([…], time 14 day) was 106.4 meq/L. It also gave a DBIL ([…], time 14 day) of 0.006 mg/dL, a GLC ([…], time 14 day) of 178.6 mg/dL and an IP ([…], time 14 day) of 6.3 mg/dL. The K ([…], time 14 day) was 4.3 meq/L, the LDH ([…], time 14 day) was 68.4 IU/L and the Na ([…], time 14 day) was 141 meq/L. It also gave a PL ([…], time 14 day) of 152.6 mg/dL, an RALB ([…], time 14 day) of 4.2 g/dL and a TBIL ([…], time 14 day) of 0.2 mg/dL. For the same compound, the TC ([…], time 14 day) was 96.4 mg/dL, the TG ([…], time 14 day) was 59.8 mg/dL and the TP ([…], time 14 day) was 6.7 g/dL. For the same compound, the gamma-GTP ([…], time 14 day) was 2.2 IU/L, the A/G ([…], time 28 day) was 2 and the ALP ([…], time 28 day) was 628 IU/L. The ALT ([…], time 28 day) was 35.4 IU/L, the AST ([…], time 28 day) was 63.4 IU/L and the BUN ([…], time 28 day) was 25.8 mg/dL. The CRE ([…], time 28 day) was 0.7 mg/dL, the Ca ([…], time 28 day) was 10.5 mg/dL and the Cl ([…], time 28 day) was 108.6 meq/L. It also gave a DBIL ([…], time 28 day) of 0.056 mg/dL, a GLC ([…], time 28 day) of 161 mg/dL and an IP ([…], time 28 day) of 5.7 mg/dL. The K ([…], time 28 day) was 4.2 meq/L, the LDH ([…], time 28 day) was 62.6 IU/L and the Na ([…], time 28 day) was 141.2 meq/L. For the same compound, the PL ([…], time 28 day) was 150.6 mg/dL, the RALB ([…], time 28 day) was 4.3 g/dL and the TBIL ([…], time 28 day) was 0.2 mg/dL. The TC ([…], time 28 day) was 100.8 mg/dL, the TG ([…], time 28 day) was 44.6 mg/dL and the TP ([…], time 28 day) was 6.5 g/dL. The gamma-GTP ([…], time 28 day) was 3.2 IU/L.
